Assays:
MCF7 [1] = assay: Antiproliferative activity against human MCF7 cells by SRB assay; type: functional, cell-based
HeLa [2] = assay: Anticancer activity against human HeLa cells by MTT assay; type: functional, cell-based; settings: pooled result: one value given for 4 cell lines, strains, targets or settings
HCT-116 [3] = assay: Potency index, ratio of doxorubicin IC50 to compound IC50 for anticancer activity against human HCT-116 cells; type: functional
MCF7 [4] = assay: Potency index, ratio of doxorubicin IC50 to compound IC50 for anticancer activity against human MCF7 cells; type: functional
HepG2 [5] = assay: Potency index, ratio of doxorubicin IC50 to compound IC50 for anticancer activity against human HepG2 cells; type: functional
HepG2 [6] = assay: Antiproliferative activity against human HepG2 cells measured after 48 hrs by MTT assay; type: functional, cell-based; settings: HepG2, 48 h
HeLa [7] = assay: Antiproliferative activity against human HeLa cells measured after 48 hrs by MTT assay; type: functional, cell-based
MCF7 [8] = assay: Antiproliferative activity against human MCF7 cells measured after 48 hrs by MTT assay; type: functional, cell-based; settings: MCF7, 48 h
MCF7 [9] = assay: Anticancer activity against human MCF7 cells incubated for 24 hrs by SRB method; type: functional, cell-based; settings: MCF7, 24 h
HepG2 [10] = assay: Anticancer activity against human HepG2 cells incubated for 24 hrs by SRB method; type: functional, cell-based; settings: HepG2, 24 h
HCT-116 [11] = assay: Anticancer activity against human HCT-116 cells incubated for 24 hrs by SRB method; type: functional, cell-based; settings: HCT-116, 24 h
HeLa [12] = assay: Cytotoxicity against human HeLa cells; type: functional, cell-based
A549 = assay: Cytotoxicity against human A549 cells assessed as reduction in cell growth; type: functional, cell-based
MCF7 [13] = assay: Cytotoxicity against human MCF7 cells; type: functional, cell-based
MCF7 [14] = assay: Antiproliferative activity against human MCF7 cells; type: functional, cell-based
Tubulin = assay: Inhibition of tubulin polymerization (unknown origin); type: protein-complex assay, Homo sapiens
HCT-116 [15] = assay: Cytotoxicity against human HCT-116 cells; type: functional, cell-based
[16] = Cytotoxicity against human Triple-negative breast cancer cells; type: functional, cell-based; settings: Triple-negative breast cancer cell
HCT-15 = assay: Antiproliferative activity against human HCT-15 cells; type: functional, cell-based
[17] = Inhibition of cell migration of human SUIT-2 cells; type: functional, cell-based
[18] = Antiproliferative activity against human SUIT-2 cells; type: functional, cell-based
MCF7 [19] = assay: Cytotoxicity against human MCF7 cells assessed as reduction in cell growth measured after 2 days by MTT assay; type: functional, cell-based; settings: MCF7, 48 h
HeLa [20] = assay: Antiproliferative activity against human HeLa cells measured after 48 hrs by CCK-8 method; type: functional, cell-based
DU-145 = assay: Antiproliferative activity against human DU-145 cells; type: functional, cell-based
[21] = Resistance factor, ratio of IC50 for human K562/VCR cells to IC50 for K562 cells; type: functional; settings: time 72 hrs

Question: Which IC50 (MCF7 [1]) does the source give for `COc1ccc2c(c1)c(/C=N/NC(=O)Cc1c[nH]c3ncccc13)cn2Cc1ccc(Br)cc1` here?
Answer: 22.3 µM

Question: For `COc1ccc2c(c1)c(/C=N/NC(=O)Cc1c[nH]c3ncccc13)cn2Cc1ccc(F)cc1F`, which IC50 (MCF7 [1]) is on record?
Answer: 22.3 µM

Question: With `CC(C)(C)OC(=O)N1CCC2C(C1)c1cc(Br)ccc1N2S(=O)(=O)c1ccc(Cl)cc1` (stereo not given) as the compound, how does the IC50 (HeLa [2]) read?
Answer: 9.42 µM

Question: Which results are given for `N=c1nc(-c2cn(S(=O)(=O)c3ccccc3)c3ccccc23)cc(-c2cccc(O)c2)[nH]1`?
Answer: Ratio IC50 (HCT-116 [3]): >8; Ratio IC50 (MCF7 [4]): >8; Ratio IC50 (HepG2 [5]): >8

Question: For `Nc1c(C(=O)c2cccc3ccccc23)[nH]c2ncccc12`, which IC50 (HepG2 [6]) is on record?
Answer: 8 µM

Question: And the IC50 (HeLa [7])?
Answer: 3.7 µM

Question: What about the IC50 (MCF7 [8]) of the same compound?
Answer: 19.9 µM

Question: Which results are given for `O=C(O)C1=C2C(=Nc3ccc(S(=O)(=O)N4CCOCC4)cc32)NC1=O`?
Answer: IC50 (MCF7 [9]): < 10 µM; IC50 (HepG2 [10]): < 10 µM; IC50 (HCT-116 [11]): < 10 µM

Question: With `COc1cc(C(c2c[nH]c3ccccc23)c2c[nH]c3ccccc23)cc(Cl)c1O` as the compound, how does the IC50 (HeLa [12]) read?
Answer: 0.37 µM

Question: What about the IC50 (A549) of the same compound?
Answer: 0.34 µM

Question: Which IC50 (MCF7 [13]) does the source give for `O=C(Nc1cc([N+](=O)[O-])cc([N+](=O)[O-])c1)c1coc(-c2c[nH]c3cccnc23)n1` here?
Answer: 0.034 µM

Question: For `O=C(c1nnc(Nc2ccccc2F)o1)c1c[nH]c2ccccc12`, which IC50 (MCF7 [14]) is on record?
Answer: 2.42 µM

Question: What about the IC50 (Tubulin) of the same compound?
Answer: 3.89 µM

Question: Which IC50 (HCT-116 [15]) does the source give for `Cn1cc(-c2nc(-c3cn(C)c4ncc(Cl)cc34)no2)c2cc(Br)ccc21` here?
Answer: 1.93 µM

Question: For `Cc1cccc2c(C(c3ccc(O)cc3)c3c[nH]c4c(C)cccc34)c[nH]c12`, which IC50 [16] is on record?
Answer: 10 µM

Question: Which IC50 (MCF7 [9]) does the source give for `CCOC(=O)/C(C#N)=C1/C(=O)Nc2ccc(S(=O)(=O)N3CCOCC3)cc21` here?
Answer: < 10 µM

Question: What about the IC50 (HepG2 [10]) of the same compound?
Answer: < 10 µM

Question: And the IC50 (HCT-116 [11])?
Answer: < 10 µM

Question: Which IC50 (HCT-15) does the source give for `COc1ccc(CC/N=C2\NC(=O)/C(=C/c3c[nH]c4ccc(Br)cc34)S2)cc1` here?
Answer: 0.92 µM

Question: For `COc1ccc(OC)c(-c2cn3nc(-c4cn(C)c5ccc(Br)cc45)sc3n2)c1`, which IC50 [17] is on record?
Answer: < 10 µM

Question: And the IC50 [18]?
Answer: < 10 µM

Question: With `Nc1ccccc1Oc1cccc(C(c2c[nH]c3ccc(Cl)cc23)c2c[nH]c3ccc(Cl)cc23)c1` as the compound, how does the IC50 (MCF7 [19]) read?
Answer: 34.8 µM

Question: What does the source list for `CC(=O)Nc1cccc(C(=O)/C=C2\C(=O)Nc3ccc(S(=O)(=O)N4CCOCC4)cc32)c1`?
Answer: IC50 (MCF7 [9]): < 10 µM; IC50 (HepG2 [10]): < 10 µM; IC50 (HCT-116 [11]): < 10 µM

Question: For `COc1cc(/C=C/c2ncc([N+](=O)[O-])n2CCOC(=O)c2c[nH]c3ccccc23)cc(OC)c1OC`, which IC50 (HeLa [20]) is on record?
Answer: 0.015 µM

Question: With `COc1cc([C@@H]2c3cc4c(cc3[C@@H](O[C@@H]3O[C@@H]5CO[C@@H](C)O[C@H]5[C@H](O)[C@H]3O)[C@H]3COC(=O)[C@H]23)OCO4)cc(OC)c1O` [ETOPOSIDE] as the compound, how does the IC50 (DU-145) read?
Answer: 9.8 µM

Question: For `N#CC(C#N)=C1C(=O)Nc2ccc(S(=O)(=O)N3CCOCC3)cc21`, which IC50 (MCF7 [9]) is on record?
Answer: < 10 µM

Question: What about the IC50 (HepG2 [10]) of the same compound?
Answer: < 10 µM

Question: What about the IC50 (HCT-116 [11]) of the same compound?
Answer: < 10 µM

Question: For `COc1cc([C@@H]2c3cc4c(cc3[C@H](OC(=O)Cc3ccc5cc[nH]c5c3)[C@H]3COC(=O)[C@H]23)OCO4)cc(OC)c1OC`, which “Ratio IC50” value [21] is on record?
Answer: 2.27
